Among the data in PMC7754465, “Multiparameter Kinetic Analysis for Covalent Fragment Optimization by Using Quantitative Irreversible Tethering (qIT)” (Chembiochem, 2020) are Ki values, retold here.

The target of the assay is T1, Cdk2(ES) (Homo sapiens, UniProt P24941, C177A/F80C).
T1 construct: GST (N, cleaved yes); made in house; host or cells: E. coli Tuner(DE3)
Nature of the assay: concentration-dependent qIT with hyperbolic regression (Ki, kinact). The format is binding. To be noted: roughly linear dependency up to 500 μM. As for the experimental part:
Next we sought to carry out comprehensive kinetic analysis of the covalent binding to better understand the covSAR trends. Accordingly, the concentration dependency for the rate of reaction between Cdk2(ES) and key acrylamides 1, 6, 9 and 11 were determined using qIT (Figure 7c). To maintain pseudo‐first‐order reaction kinetics and stay within the solubility limits of the fragments, ligands were titrated from 25 to 500 μM. […] Indeed, comparing the binding conformations of the merged (9 and 11) and parent (1 and 6) fragments, we observe a subtle shift in the position of the core scaffolds and the orientation of the acrylamide link that likely explains the jump in potency that resulted from fragment merging. Overall, comparing acrylamides 9 and 11, we observe in a 3.7‐fold increase in k inact/K i and a 4.3‐fold increase in REF, and the consistency between these two orthogonal metrics of covalent fragment potency is encouraging for future applications of qIT to covalent fragment optimization.
H. Intact-protein mass spectrometry
Protein-mass data were obtained on a Waters micromass LC-TOF mass spectrometer in positive ion mode using electrospray ionization. Samples were chromatographed using an Acquity UPLC protein BEH C4 column (2.1 mm × 50 mm, 2.7 µm) with a flow rate of 30 µL/min. The injection volume was 5 µL of protein solution (5 µM) in 30 mM ammonium bicarbonate buffer con-taining 0.5% formic acid and 20% MeOH. The gradient used was 100% mobile phase A (0.1% formic acid in water/MeOH (19:1)) ramping linearly to 90% mobile phase B (0.1% formic acid in MeOH) over 5 minutes. The spectra were acquired from 500 to 2500 Da and deconvolution was performed with MassLynx (Waters), using the maximum entropy algorithm, over a mass range of […] with a mass step of 0.75. […]
Cdk2(WT) or Cdk2(ES) (1 mg) was sequentially incubated with aliquots of CAK1 (3 × 0.05 mg) at r.t. for 4 hours at a time in 1.5 mL of a 30 mM Tris/HCl buffer (pH 7.5) containing 10 mM MgCl2, 10 mM ATP and 3 mM DTT. As CAK1 appeared to be-come rapidly inactivated in the presence of pCdk2, three repetitions were required to drive the reaction to completion. The resulting solution was incubated with 50 µL of glutathione-Sepharose beads and filtered to remove remaining CAK1.
Kinase assays were performed by coupling the conversion of ATP into ADP to the oxidation of NADH (Abs = 340 nm) into NAD+, mediated by lactate dehydrogenase (LDH) and pyruvate kinase (PK). WT, mutant or ligand-conjugated pCdk2 (12.5 or 50 nM) was preincubated with Cyclin A2 (20 nM) in a buffer containing 50 mM Tris/HCl, 10 mM MgCl2, 5 mM DTT, 1 mM phosphoenolpyruvate, 0.24 mM NADH, 10 U mL-1 LDH, 14 U mL-1 PK and 5% DMSO at 37 °C for 30 minutes. Reactions were initiated by addition of 0.5 mM ATP and 0.24 mM substrate peptide (PKTPKKAKKL) and the absorbance at 340 nm was moni-tored for two hours. Assays were conducted at 37 °C and carried out in clear 384-well plates (Nunc) using a SpectraMax i3x plate reader (Molecular Devices) with a final volume of 20 µL in each well. After plotting Abs 340 against time, enzyme velocity was measured from the gradient during the linear phase of product accumulation.
Q. Concentration dependent qIT
The rate of reaction (kobs) for the reaction between each acrylamide (25, 50, 125, 250 and 500 µM) with Cdk2(ES) (5 µM) was determined us qIT (see D. Rate Determination by qIT) in duplicate. The average kobs was plotted against acrylamide concen-tration and hyperbolic regression analysis performed using Prism 8.0 software (GraphPad) to derive kinact and Ki.

The term Ki denotes the dissociation constant of the complex between target and ligand, obtained from inhibition or displacement. Low values mean higher affinity, high ones lower affinity.

The compound `C=CC(=O)N1CCN(CC)c2ccccc21` [compound 6] yielded an inhibitory constant (Ki) of over 1000 µM.
With `C=CC(=O)N1CCCc2cc(C(=O)OC)ccc21` [compound 1], the Ki is over 1000 µM.
